Test results from patent US20230382863A1, “MEK INHIBITORS AND USES THEREOF” (Ikena Oncology, Inc., priority 2022, published 2023).
pIC50: −log10 of the molar value.

Columns and labels:
[1] = test system: Phosphorylation of MEK1/2 in AsPC1 cells; assay: 4 hour pMEK1/2 MSD Assay; assay type: cell-based; conditions: Homo sapiens; AsPC1, 4 hours; read-out: pMEK IC50
Method: AsPC1 cells were seeded at 10,000 cells/well overnight in 96-well plates, then treated with a 12-point dose response of compounds (Starting dose of 1000 nM and 3-fold dilution) for 4 hours. AsPC1 cells are a K-Ras mutant (G12D) pancreatic cancer cell line. Phosphorylation of MEK1/2 on residues Ser217 and Ser221 were detected using a MesoScale Discovery (MSD) assay (MSD Cat #K15129D-2). MEK1/2 phosphorylation levels were normalized to total MEK1/2 protein detected in each well on the same MSD plate. IC50 values were determined by fitting a variable slope, four parameters curve to the compound concentration to normalized Phospho-MEK1/2 relationship.

[2] = test system: SKM-1 xenograft (KRAS K117N); assay: In vivo efficacy, SKM-1 xenograft model; design: species or system mouse; conditions: SKM-1 model, Day 22
Method: (§1) The antitumor activity of exemplary MEK inhibitor compounds is evaluated in vivo using human cell line derived xenografts (CDX) grown in immunodeficient mice. For these studies, AsPC1 (pancreatic cell line with KRAS G12D mutation), NCI-H2122 (lung cell line with KRAS G12C mutation), and 5637 (bladder cell line with CRAF amplification) models are used. In addition, HCT-116 (colorectal cell line with KRAS G13D mutation), SKM-1 (AML cell line with KRAS K117N mutation), and OCI-AML-3 (AML cell line with NRAS Q61L mutation) models are used. The tumor cell lines (AsPC-1, NCI-H2122, 5637, and HCT-116 cells) are maintained in vitro as monolayer culture in medium at 37° C. in an atmosphere of 5% CO2 in air. The tumor cell lines (SKM-1 and OCI-AML-3 cells) are maintained in vitro as a suspension in medium at 37° C. in an atmosphere of 5% CO2 in air. The tumor cells are routinely sub-cultured before confluence by trypsin-EDTA treatment, not to exceed 4-5 passages. The cells growing in an exponential growth phase are harvested for tumor inoculation. AsPC1, NCI-H2122, and OCI-AML-3 tumors are implanted into Balb/c nude mice. HCT-116 tumors are implanted into Nu/Nu mice. 5637 and SKM-1 tumors are implanted into NOG mice. Each mouse is inoculated subcutaneously on the right flank with tumor cells in a 1:1 mixture with matrigel. Tumors are allowed to grow to approximately 150-200 mm^3. At this time, mice are assigned to groups such that the mean tumor volume is the same for each treatment group. The MEK inhibitor compound treatments are administrated to the tumor-bearing mice via oral gavage. Throughout the study, mouse body weight and tumor volume are recorded. The measurement of tumor size is conducted twice weekly with a caliper and recorded. The tumor volume (mm^3) is estimated using the formula: TV=a×b^2/2, where “a” and “b” are long and short diameters of a tumor, respectively.

[3] = test system: HCT-116 xenograft (KRAS G13D); assay: In vivo efficacy, HCT-116 xenograft model; design: species or system mouse; conditions: HCT-116 model, Day 20
Method: as §1

[4] = test system: AsPC1 xenograft (KRAS G12D); assay: In vivo efficacy, AsPC-1 xenograft model; design: species or system mouse; conditions: AsPC-1 model, 3 mg/kg QD, Day 21
Method: (§2) The antitumor activity of exemplary MEK inhibitor compounds is evaluated in vivo using human cell line derived xenografts (CDX) grown in immunodeficient mice. For these studies, AsPC1 (pancreatic cell line with KRAS G12D mutation), NCI-H2122 (lung cell line with KRAS G12C mutation), and 5637 (bladder cell line with CRAF amplification) models are used. In addition, HCT-116 (colorectal cell line with KRAS G13D mutation), SKM-1 (AML cell line with KRAS K117N mutation), and OCI-AML-3 (AML cell line with NRAS Q61L mutation) models are used. The tumor cell lines (AsPC-1, NCI-H2122, 5637, and HCT-116 cells) are maintained in vitro as monolayer culture in medium at 37° C. in an atmosphere of 5% CO2 in air. The tumor cell lines (SKM-1 and OCI-AML-3 cells) are maintained in vitro as a suspension in medium at 37° C. in an atmosphere of 5% CO2 in air. The tumor cells are routinely sub-cultured before confluence by trypsin-EDTA treatment, not to exceed 4-5 passages. The cells growing in an exponential growth phase are harvested for tumor inoculation. AsPC1, NCI-H2122, and OCI-AML-3 tumors are implanted into Balb/c nude mice. HCT-116 tumors are implanted into Nu/Nu mice. 5637 and SKM-1 tumors are implanted into NOG mice. […] Throughout the study, mouse body weight and tumor volume are recorded. The measurement of tumor size is conducted twice weekly with a caliper and recorded. […]

[5] = test system: 5637 xenograft (CRAF amplification); assay: In vivo efficacy, 5637 xenograft model; design: species or system mouse; conditions: 5637 model, 3 mg/kg QD, Day 21
Method: as §2

[6] = test system: OCI-AML-3 xenograft (NRAS Q61L); assay: In vivo efficacy, OCI-AML-3 xenograft model; design: species or system mouse; conditions: OCI-AML-3 model, Day 15
Method: as §1

BRAF in complex with MEK = assay: BRAF-MEK stabilization in cells (MEK immunoprecipitation, Western); assay type: cell-based; conditions: 3 nM, 4 hours
Excerpt: The stabilization of ARAF, BRAF and CRAF in complex with MEK in MEK immunoprecipitates isolated from cellular lysates. For these studies, HCT-116 (colorectal cell line with KRAS G13D mutation), SKMEL-2 (melanoma cell line with NRAS Q61K mutation), HT-29 (colorectal cell line with BRAF Class I mutation), NCI-H1755 (lung cancer cell line with BRAF Class II mutation), and NCI-H1666 (lung cancer cell line with BRAF Class III mutation) models are used. The tumor cell lines are maintained in vitro as monolayer culture in medium at 37° C. in an atmosphere of 5% CO2 in air. Cell lines are treated with exemplary MEK inhibitors at a concentration of 3 nM for 4 hours. Cells are lysed and MEK is immunoprecipitated from the lysates overnight. Denatured immunoprecipitates are run on SDS-PAGE, transferred to nitrocellulose membranes and associated ARAF, BRAF, or CRAF are detected by Western analysis. Stabilization was defined as >1.5-fold induction of RAF-MEK interaction over vehicle control.

[7] = test system: NCI-H2122 xenograft (KRAS G12C); assay: In vivo efficacy, NCI-H2122 xenograft model; design: species or system mouse; conditions: 3 mg/kg QD, Day 31
Method: as §2

pERK HCT-116 (G13D) = pERK HCT-116 (G13D) ICW (4 hour); assay type: cell-based; conditions: Homo sapiens, read-out: pERK HCT-116 (G13D) ICW (4 hour): Average IC50 (nM)
Pharmacokinetics in rat = assay type: in vivo; conditions: plasma, IV, 1 mg/kg

- pIC50 [1]: > 7.00
- weight gain ([2]; 1 mg/kg QD): 1.2%
- weight gain ([2]; 6 mg/kg QOD): 3.9%
- weight gain ([6]; 6 mg/kg QOD): 3.3%
- IC50 (pERK HCT-116 (G13D)): < 100 nM
- AUC(0-inf) (Pharmacokinetics in rat): 1080 ng·h/mL
- AUC(0-t) (Pharmacokinetics in rat): 1070 ng·h/mL
- clearance (Pharmacokinetics in rat): 16.6 mL/min/kg
- half-life (Pharmacokinetics in rat): 4.22 h
- Vd (Pharmacokinetics in rat; read-out: Vdss): 2.2 L/kg
Structure (SMILES): CNS(=O)(=O)Nc1cccc(Oc2c(C(=O)NC3CC3)c(Nc3ccc(I)cc3F)n(C)c(=O)c2C)c1Cl [Compound I-2, 4-(2-chloro-3-((N-methylsulfamoyl)amino)phenoxy)-N-cyclopropyl-2-((2-fluoro-4-iodophenyl)amino)-1,5-dimethyl-6-oxo-1,6-dihydropyridine-3-carboxamide]
- percent TGI ([2]; 1 mg/kg QD): 97.7%
- average body weight loss ([2]; 3 mg/kg QD): 1.2%
- percent TGI ([2]; 6 mg/kg QOD): 96.2%
- average body weight gain ([3]; 2 mg/kg QD): 4%
- percent TGI ([3]; 2 mg/kg QD): 102.9%
- average body weight gain ([3]; 3 mg/kg QOD): 5.5%
- percent TGI ([3]; 3 mg/kg QOD): 98.1%
- average body weight gain ([3]; 6 mg/kg QOD): 12.1%
- percent TGI ([3]; 6 mg/kg QOD): 98%
- average body weight gain [4]: 2.4%
- percent TGI (tumor growth inhibition) [4]: 83.4%
- average body weight loss [5]: 6.8%
- percent TGI [5]: 111%
- average body weight loss ([6]; 1 mg/kg QD): 2.9%
- percent TGI ([6]; 1 mg/kg QD): 94.8%
- average body weight loss ([6]; 3 mg/kg QD): 7.8%
- percent TGI ([6]; 3 mg/kg QD): 98.6%
- percent TGI ([6]; 6 mg/kg QOD): 95.2%
- Wild-type BRAF-MEK association (BRAF in complex with MEK; HCT-116 and SKMEL-2 cells): augmented
- mutant BRAF-MEK interaction (BRAF in complex with MEK; HT-29 (BRAF Class I), NCI-H1755 (BRAF Class II), NCI-H1666 (BRAF Class III)): enhanced
- average body weight loss [7]: 1.5%
- percent TGI [7]: 104%
